# Values of other authors in patent publication US20220143227A1, “Method of Treatment of Neuroendocrine Tumors That Over-Express Somatostatatin Receptors” (ADVANCED ACCELERATOR APPLICATIONS, priority 2015, published 2022).
# Where two headings read alike, the source gives them in different places.
# Key:
# [1] = tested on: progressive neuroendocrine tumors of pancreatic origin, and NETs of gastrointestinal (GI) or lung origin; conditions: Phase 3 trials
# lymphocytes = conditions: B- versus T-lymphocytes
# [2] = human, in vivo
# [3] = tested on: human xenograft tumor model of NET; conditions: in vivo
# pos-tdocetaxel CRPC = conditions: phase III trial
compound,measurement,setting,value
CO[C@H]1C[C@@H]2CC[C@@H](C)[C@@](O)(O2)C(=O)C(=O)N2CCCC[C@H]2C(=O)O[C@H]([C@H](C)C[C@@H]2CC[C@@H](OCCO)[C@H](OC)C2)CC(=O)[C@H](C)/C=C(\C)[C@@H](O)[C@@H](OC)C(=O)[C@H](C)C[C@H](C)/C=C/C=C/C=C/1C [Everolimus],PFS,[1],11 months
"C[C@@H](O)[C@H](NC(=O)[C@@H]1CSSC[C@H](NC(=O)[C@@H](Cc2ccccc2)NC(=O)CN2CCN(CC(=O)[O-])CCN(CC(=O)[O-])CCN(CC(=O)[O-])CC2)C(=O)N[C@@H](Cc2ccc(O)cc2)C(=O)N[C@H](Cc2c[nH]c3ccccc23)C(=O)N[C@@H](CCCCN)C(=O)N[C@@H]([C@@H](C)O)C(=O)N1)C(=O)O.[177Lu+3] [Lutathera, [177]Lutetium-DOTA[O]-Tyr[3]-Octreotate]","lymphocyte toxicity, specificity",lymphocytes,more specific to B-lymphocytes
same,severe hematologic toxicity Grade 3-4,[2],3.1 % of the cases
same,CD86+ APC infiltration,[3],increased CD86+ APC infiltration
same,expression of CD86 on APC,[3],increased expression of CD86
"ipilimumab: antibody that targets the CTLA-4/B7 receptor complex, approved for unresectable or metastatic melanoma",improvement in OS with addition of ipilimumab to RT,pos-tdocetaxel CRPC,no significant improvement in OS
same,abscopal effect among patients with local response,advanced melanoma; 13 patients with local response,85%
same,no local regression,"advanced melanoma; 21 patients, RT after ipilimumab progression",38%
same,median OS,advanced melanoma; all 21 patients,13 months
same,median OS,advanced melanoma; patients with abscopal responses,22.4 months
same,median OS,advanced melanoma; patients without abscopal responses,8.3 months
